Measured values: patent publication US7928138B2, “Marine actinomycete taxon for drug and fermentation product discovery” (Regents of the University of California, priority 2000, dated 2011)
In brackets after ≈: the same amount, converted by molar mass.

Tested on: HCT-116 human colon carcinoma cell line
Assay: Cytotoxicity against human colon carcinoma cell line by MTS assay
Format: cell-based
Conditions: pure compound
Protocol: Assay for the inhibition of growth of colon carcinoma cells and of ovarian cancer cells in vitro. The cytotoxicity of extracts from cells or culture media were assessed in vitro against the human colon carcinoma cell line HCT116 and the human ovarian carcinoma cell line A2780 by MTS assay. Cells were plated at 4,000 cells per well in 96 well microliter plates and, after 24 hours, the extract (dissolved in DMSO or other appropriate solvent) was added and serially diluted. The cells were incubated with the compound at 37° C. for 72 hours, then the tetrazolium dye MTS was added to a final concentration of 333 μg/ml and the electron coupling agent phenazine methosulfate was added to a final concentration of 25 μM. Once reduced, MTS is converted into a […] blue crystal formazan and that was read at an absorbance at 490 nm with a microplate reader. As dead cells are unable to reduce MTS, the amount of formazan is correlated to the number of viable cells. The IC50, the drug concentration required to inhibit proliferation of 50% of the cells, was used as a measure of efficacy.

C[C@@]12OC(=O)[C@]1([C@@H](O)[C@@H]1C=CCCC1)NC(=O)[C@@H]2CCCl [salinosporamide A]
IC50 against the HCT-116 human colon carcinoma cell line: 0.01 µg/mL (≈ 0.0319 µM)
